± gives the expanded uncertainty stated by the source.
Test: mn = molality of the nth substance listed, in mol/kg
Conditions: 100 kPa, Liquid; for speed of sound: Frequency=3 MHz, Single path-length method; for mass density: Vibrating tube method

[Cl-].[Li+] [lithium chloride] + O
Conditions | mass density, 288.15 K [kg/m3] | mass density, 293.15 K [kg/m3] | mass density, 298.15 K [kg/m3] | mass density, 303.15 K [kg/m3] | mass density, 308.15 K [kg/m3] | speed of sound, 288.15 K [m/s] | speed of sound, 293.15 K [m/s] | speed of sound, 298.15 K [m/s] | speed of sound, 303.15 K [m/s] | speed of sound, 308.15 K [m/s]
m1 = 0.05 | 1000.33 ± 0.31 | 999.427 ± 0.31 | 998.265 ± 0.31 | 996.862 ± 0.31 | 995.242 ± 0.31 | 1469.6 ± 1 | 1485.6 ± 1 | – | 1512 ± 1 | –
m1 = 0.1002 | 1001.57 ± 0.31 | 1000.66 ± 0.31 | 999.489 ± 0.31 | 998.083 ± 0.31 | – | 1472.7 ± 1 | 1488.6 ± 1 | 1502.6 ± 1 | 1514.8 ± 1 | 1525.3 ± 1
m1 = 0.1498 | 1002.78 ± 0.31 | 1001.87 ± 0.31 | 1000.69 ± 0.31 | 999.281 ± 0.31 | 997.651 ± 0.31 | 1475.8 ± 1 | 1491.6 ± 1 | 1505.5 ± 1 | 1517.6 ± 1 | –
m1 = 0.1999 | 1004 ± 0.31 | 1003.08 ± 0.31 | 1001.89 ± 0.31 | 1000.48 ± 0.31 | 998.845 ± 0.31 | 1478.8 ± 1 | 1494.6 ± 1 | 1508.3 ± 1 | 1520.3 ± 1 | 1530.7 ± 1
m1 = 0.2502 | 1005.22 ± 0.31 | 1004.28 ± 0.31 | 1003.1 ± 0.31 | 1001.68 ± 0.31 | 1000.04 ± 0.31 | 1482 ± 1.1 | 1497.6 ± 1 | 1511.2 ± 1 | – | –
m1 = 0.2999 | 1006.41 ± 0.31 | 1005.47 ± 0.31 | 1004.28 ± 0.31 | 1002.86 ± 0.31 | 1001.21 ± 0.31 | 1485 ± 1 | 1500.5 ± 1 | 1514.1 ± 1 | 1525.9 ± 1 | 1536 ± 1
m1 = 0.3503 | 1007.63 ± 0.31 | 1006.67 ± 0.31 | 1005.47 ± 0.31 | 1004.05 ± 0.31 | 1002.4 ± 0.31 | 1488.1 ± 1 | 1503.5 ± 1 | 1516.9 ± 1 | 1528.6 ± 1 | 1538.7 ± 1
m1 = 0.4 | 1008.83 ± 0.31 | 1007.86 ± 0.31 | 1006.65 ± 0.31 | 1005.22 ± 0.31 | 1003.57 ± 0.31 | 1491.1 ± 1.1 | 1506.3 ± 1 | 1519.6 ± 1 | 1531.2 ± 1 | 1541.2 ± 1
m1 = 0.4503 | 1010.02 ± 0.31 | 1009.04 ± 0.31 | 1007.83 ± 0.31 | 1006.4 ± 0.31 | 1004.74 ± 0.31 | 1494.2 ± 1.1 | 1509.2 ± 1 | 1522.4 ± 1 | 1533.9 ± 1 | 1543.8 ± 1
m1 = 0.5 | 1011.21 ± 0.31 | 1010.21 ± 0.31 | 1008.99 ± 0.31 | 1007.56 ± 0.31 | 1005.9 ± 0.31 | 1497.2 ± 1.1 | 1512.1 ± 1 | 1525.1 ± 1 | 1536.6 ± 1 | 1546.4 ± 1

Reference: the NIST ThermoML archive (doi:10.1016/j.jct.2017.02.004)
